From article PMC6015222, “Targeting Phosphopeptide Recognition by the Human BRCA1 Tandem BRCT Domain to Interrupt BRCA1-Dependent Signaling” (Cell Chemical Biology, 2018)
“Also recorded” adds a separate entry of the source.

Columns and labels:
ECT2 BRCT = biological target: T1, ECT2 BRCT (Homo sapiens, UniProt Q9H8V3); assay: Competitive MST selectivity: ECT2; type: binding
T1 construct: ECT2 BRCT residues 22-326; 6x His (N); made in house; host or cells: E. coli C41(DE3)
T1 sequence (Q9H8V3 22-326 isoform Q9H8V3-4): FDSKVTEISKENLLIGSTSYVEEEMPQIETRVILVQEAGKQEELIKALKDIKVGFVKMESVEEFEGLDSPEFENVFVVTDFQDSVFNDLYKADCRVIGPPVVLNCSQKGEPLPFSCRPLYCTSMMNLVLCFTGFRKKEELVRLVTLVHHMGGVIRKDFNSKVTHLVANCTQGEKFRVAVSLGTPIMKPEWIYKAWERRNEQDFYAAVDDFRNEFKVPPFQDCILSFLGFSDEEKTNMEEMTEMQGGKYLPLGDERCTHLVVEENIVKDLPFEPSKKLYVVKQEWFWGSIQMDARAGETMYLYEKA
Experimental: Protein domains used in the assay were labeled with NT-647-NHS fluorescent dye using the Monolith NT™ Protein Labeling Kit (NanoTemper Technologies). Assays were carried out in 20mM Tris buffer, pH 7.4, with 200mM NaCl, 0.05% Tween-20 and 2mM DTT. For the direct binding assay, 10μl of labeled protein at a final concentration of 20nM was mixed with 10μl of test compound and incubated on ice for 10 min. For the competitive assay, 10μl of labeled protein at a final concentration of 20nM was mixed with 2μM cognate peptide substrate at the EC80 concentration determined by prior titration using a 16-point serial dilution by direct-binding MST. For both assays, samples prepared as above were centrifuged at 15000 rpm at 4°C for 10 min and 4μl of the supernatant was loaded into premium glass capillaries (NanoTemper Technologies). MST analysis was performed at MST power of 40% and LED power of 80%, at 22°C temperature using a Monolith NT.115 (NanoTemper Technologies). An initial “Capillary Scan” was performed to scan for fluorescence across the length of the capillary tray to determine the exact position of each capillary before the MST measurement was started. Test compounds were assayed at 16 different concentrations by serial dilution, and data were analysed using NanoTemper analysis software. Kd values were determined using “T-jump + Thermophoresis” settings. […]

BRCA1 foci = assay: Radiation-induced nuclear BRCA1 foci, high-content imaging, HEK293 cells; type: cell-based, human; conditions: 100 μM added 6 hr after 16 Gy, staining 18 hr after irradiation
Experimental: HEK293 cells stably harboring plasmids for Tet-inducible expression of tBRCT domains were seeded at 30,000 cells/well on Matrigel-coated 96-well plates, and treated as indicated. Cells were fixed in 2.5% PFA, for 20’ at RT and incubated in 1x PBS with 10% FBS plus 0.5% TritonX-100 for 1 h for blocking and permeabilization. Primary antibody staining was performed at the indicated dilutions in PBST-BSA buffer (0.7mg/ml BSA, 0.05% Tween-20 in 1XPBS) for 1h at RT. Cells were then extensively washed in PBST-BSA buffer and stained with goat-anti-mouse Alexa 488 secondary antibody (Invitrogen), at 1:1000 dilution along with 2.5μg/ml DAPI for nuclear staining. […] Images were acquired on a high-content imaging platform (Cellomics ArrayScan VTI HCS Reader (Thermo Fisher Scientific)) using a 40x objective. On average ∼800 fields from 6-well replicates, containing a total of ∼10-20K cells were imaged per treatment group and quantified using image analysis software (in-house algorithms using MatLab and commercially available HCS studio 2.0 from Thermo Fisher Scientific). […] Cut-off values for foci number per cell specifying the maximal difference between control and irradiated samples were determined to calculate the percentage of cells positive for radiation-induced foci. […]

HEK293 cells = assay: Cell cycle profiles by flow cytometry after 4 Gy (damage-induced G2 arrest); type: cell-based, human; conditions: 10–100 μM Bractoppin or 100 μM CCBT2047 added 0.5 hr before radiation
Experimental: HEK293 cells stably harboring plasmids for Tet-inducible expression of tBRCT domains were seeded on 12-well plates at 1.8 X10^5 cells/well. Cells were thymidine blocked and synchronously released into the cell cycle following irradiation at 4Gy, without or with exposure to compounds (at final concentrations with 0.5% DMSO) in serum-containing media for 16 h. Cells were re-suspended in 1x PBS, fixed with 80% ethanol, and permeabilized in buffer containing 0.1% Tween-20 in PBS (PBST), for 20’ at RT. DAPI staining was used to quantify nuclear DNA content. Analysis was performed using a Beckman Coulter Gallios analyzer, and quantified using the Dean-Jet algorithm in FlowJo software.

In the case of `O=C(c1ccc2nc(-c3ccccc3)[nH]c2c1)N1CCN(Cc2ccccc2F)CC1` [Bractoppin, (4-(2-fluorobenzyl)piperazin-1-yl) (2-phenyl-1H-benzo[d]imidazol-6-yl) methanone], the “binding to fluorescently labeled ECT2 tBRCT domain” value (ECT2 BRCT) is reported as “does not detectably bind”, the “effect on formation of radiation-induced BRCA1 foci” value (BRCA1 foci) is reported as “inhibits the formation of radiation-induced BRCA1 foci; also recorded: selectively inhibits damage-induced BRCA1 foci formation” and the “effect on damage-induced G2 arrest” value (HEK293 cells) is reported as “inhibited in a dose-dependent manner”.
